Experimental data published in patent publication US20220298253A1, “TREATMENT OF RMS BY SWITCHING THERAPY” (Novartis AG, priority 2019, published 2022).
Entries after “also recorded” stand apart in the source; their conditions may differ. Like-named read-outs stand apart in the source and are kept apart here.

What was measured:
[1] = Half-life of ofatumumab at steady state; format: in vivo; conditions: following subcutaneous administration of repeated 20 mg doses
[2] = system: patients with relapsing MS; assay: Number of relapses in patients switched from an earlier DMT to ofatumumab (Example 2); format: in vivo, human; conditions: for Mean NURLP12: number of relapses in past 12 months (screening) / Mean NURLP24a: number of relapses in past 24 months (screening): before switch
Method: (§1) The effect of ofatumumab administered to patients who have been treated with DMTs other than ofatumumab has been investigated as described below.
(§2) Ofatumumab was provided in pre-filled syringes for subcutaneous administration containing 20 mg ofatumumab (50 mg/ml, 0.4 ml content). The matching placebo to ofatumumab pre-filled syringe had the same appearance as the investigational drug.
(§3) Ofatumumab arm: ofatumumab 20 mg s.c. injections on Day 1, 7, 14, Week 4 (Study Month 1) and every 4 weeks thereafter+teriflunomide-matching placebo capsule orally once daily.
(§4) Eligible patients can be randomized in a 1:1 ratio to either the active ofatumumab 20 mg group or to the active teriflunomide 14 mg group. The randomization was stratified by geographical region and by MS subtype (RRMS, SPMS).
(§5) Diagnosis of MS according to the 2010 Revised McDonald criteria (Polman et al. 2011).
(§6) Relapsing MS: relapsing-remitting course (RRMS), or secondary progressive (SPMS) course with disease activity, as defined by Lublin et al., 2014.
(§7) Disability status at Screening with an EDSS score of 0 to 5.5 (inclusive).
(§8) Patients previously treated with DMT selected from glatiramer acetate, dimethyl fumarate (DMF), daclizumab, fingolimod, natalizumab and laquinimod.
(§9) Documentation of at least: 1 relapse during the previous 1 year OR 2 relapses during the previous 2 years prior to Screening OR a positive Gd-enhancing MM scan during the year prior to randomization. Note: Screening MRI scan may be used if no positive Gd enhancing scan exist from prior year.
(§10) Neurologically stable within 1 month prior to randomization

[3] = system: primary human B cells; assay: Ofatumumab-induced CDC of freshly isolated primary human B cells; format: cell-based; conditions: antibody and 30% human serum added simultaneously, 1 hour, flow cytometry; compared to ocrelizumab and rituximab; FIG. 2
[4] = system: patients with relapsing MS; assay: Gd-enhancing T1 lesion numbers in patients switched from an earlier DMT to ofatumumab (Example 2); format: in vivo, human
Method: as §1, §2, §3, §4, §5, §6, §7, §8, §9, §10
The following results were obtained for the Gd lesion numbers.

[5] = system: primary human B cells; assay: CDC after delayed addition of complement; format: cell-based; conditions: cells washed, complement source added after 6 hours; FIG. 3
Method: In a second experiment, B cells were incubated with antibody as described before, albeit in the absence of a source of complement. Cells were washed as described previously. After 6 hours, the source of complement was added.

[6] = system: MS patients; assay: ASCLEPIOS I: loss of thalamus volume; format: in vivo, human; conditions: for thalamus volume, mean percentage change between Month 24 and baseline: ASCLEPIOS I
Method: (§11) In ASCLEPIOS I patients were randomised (1:1) to receive either ofatumumab 20 mg sc injections every 4 weeks (after an initial loading regimen of 20 mg sc doses on Days 1, 7 and 14) or teriflunomide 14 mg orally once daily, for up to 30 months. Patients aged 18-55 years with an Expanded Disability Status Scale (EDSS) score (according to Kurtzke, Neurology. 1983, November; 33(11): 1444-52) of 0-5.5 at screening who experienced ≥1 relapse in the past year or ≥2 relapses in the past 2 years or a positive gadolinium-enhancing (Gd+) MM scan during the year before randomisation were included.

[7] = system: MS patients; conditions: cited from earlier work; for reduction in annualized relapse rate (ARR) compared to Aubagio (teriflunomide): p<0.001
[8] = system: MS patients; assay: ASCLEPIOS I: MSIS-29 impact score; format: in vivo, human
Method: The MSIS-29 version 2 is a 29-item, self-administered questionnaire that includes 2 domains: physical and psychological. Responses were captured on a 4-point ordinal scale ranging from 1 (not at all) to 4 (extremely), with higher scores reflecting greater impact on day-to-day life. The MSIS-29 takes about 5 minutes to complete and the questions are designed to determine the patient's views about the impact of MS on their day-to-day life during the past 2 weeks. Reference is made to Hobart J and Cano S (2009), “Improving the evaluation of therapeutic interventions in multiple sclerosis: the role of new psychometric methods”, Health Technol Assess; 13(12):iii, ix-x, […] to Hobart J, Lamping D, Fitzpatrick R, et al (2001), “The Multiple Sclerosis Impact Scale (MSIS-29): a new patient-based outcome measure”, Brain; 124(Pt 5):962-73.
as §11

[9] = system: patients with multiple sclerosis; conditions: cited from earlier work; for clinical and MRI course after anti-CD20 infusion: case reports, rebound after fingolimod cessation (Hatcher et al. 2016; Schmidt and Schulten 2019)
[10] = earlier DMT fingolimod, ofatumumab 20 mg s.c.
[11] = earlier DMT fingolimod, ofatumumab 20 mg s.c., listed as OMB

With “ofatumumab: recombinant human monoclonal immunoglobulin G1 (IgG1) antibody that binds to human CD20” the “half-life at steady state” value [1] was “approximately 16 days”, the “Mean NCFRLP12: number of relapses up to month 12 post-first dose” value (“Mean NCFRLP12: number of relapses up” for short) ([2]; earlier DMT DMF) was 0.21 and the “Mean NCFRLP24: number of relapses up to month 24 post-first dose” value (from here on “Mean NCFRLP24: number of relapses up”) ([2]; earlier DMT DMF) was 0.39. For the same compound, the “Mean NURLP12: number of relapses in past 12 months (screening)” value (from here on “Mean NURLP12: number of relapses”) ([2]; earlier DMT DMF) was 1.11, the “Mean NURLP24a: number of relapses in past 24 months (screening)” value (“Mean NURLP24a: number of relapses” below) ([2]; earlier DMT DMF) was 2 and the “Mean NCFRLP12: number of relapses up” value ([2]; earlier DMT daclizumab) was 0. The “Mean NCFRLP24: number of relapses up” value ([2]; earlier DMT daclizumab) was 0, the “Mean NURLP12: number of relapses” value ([2]; earlier DMT daclizumab) was 1 and the “Mean NURLP24a: number of relapses” value ([2]; earlier DMT daclizumab) was 1.18. The “Mean NURLP12: number of relapses” value ([2]; earlier DMT fingolimod) was “approx. 1.26”, the “Mean NURLP24a: number of relapses” value ([2]; earlier DMT fingolimod) was 2.28 and the “Mean NURLP12: number of relapses” value ([2]; earlier DMT fingolimod, listed as OMB) was 1.26. For the same compound, the “Mean NCFRLP12: number of relapses up” value [2, 10] was “approx. 0.23”, the “Mean NCFRLP24: number of relapses up” value [2, 10] was “about 0.30” and the “Mean NCFRLP12: number of relapses up” value [2, 11] was 0.23. The “Mean NCFRLP24: number of relapses up” value [2, 11] was 0.31, the “Mean NCFRLP12: number of relapses up” value ([2]; earlier DMT glatiramer acetate) was 0.10 and the “Mean NCFRLP24: number of relapses up” value ([2]; earlier DMT glatiramer acetate) was 0.17. The “Mean NURLP12: number of relapses” value ([2]; earlier DMT glatiramer acetate) was 1.21, the “Mean NURLP24a: number of relapses” value ([2]; earlier DMT glatiramer acetate) was 2.13 and the “Mean NCFRLP12: number of relapses up” value ([2]; earlier DMT natalizumab) was 0.13. For the same compound, the “Mean NCFRLP24: number of relapses up” value ([2]; earlier DMT natalizumab) was 0.2, the “Mean NURLP12: number of relapses” value ([2]; earlier DMT natalizumab) was 1.2 and the “Mean NURLP24a: number of relapses” value ([2]; earlier DMT natalizumab) was 2.37. The “induction of CDC (B cell lysis, SYTOX Blue+ cells)” value [3] was “strong concentration-dependent induction”, the “Mean Gd lesion number” value ([4]; earlier DMT DMF, BASELINE) was 2.02 and the “Mean Gd lesion number” value ([4]; earlier DMT DMF, Week 48) was 0. The “Mean Gd lesion number” value ([4]; earlier DMT DMF, Week 96) was 0, the “Mean Gd lesion number” value ([4]; earlier DMT daclizumab, BASELINE) was 0.18 and the “Mean Gd lesion number” value ([4]; earlier DMT daclizumab, Week 48) was 0. For the same compound, the “Mean Gd lesion number” value ([4]; earlier DMT daclizumab, Week 96) was 0, the “Mean Gd lesion number” value ([4]; earlier DMT fingolimod, BASELINE) was 2.95 and the “Mean Gd lesion number” value ([4]; earlier DMT fingolimod, Week 48) was 0.03. The “Mean Gd lesion number” value ([4]; earlier DMT fingolimod, Week 96) was 0, the “Mean Gd lesion number” value ([4]; earlier DMT glatiramer acetate, BASELINE) was 1.52 and the “Mean Gd lesion number” value ([4]; earlier DMT glatiramer acetate, Week 48) was 0.02. The “Mean Gd lesion number” value ([4]; earlier DMT glatiramer acetate, Week 96) was 0.02, the “Mean Gd lesion number” value ([4]; earlier DMT natalizumab, BASELINE) was 2.5 and the “Mean Gd lesion number” value ([4]; earlier DMT natalizumab, Week 48) was 0.04. The “Mean Gd lesion number” value ([4]; earlier DMT natalizumab, Week 96) was 0, the “induction of CDC after delayed addition of complement” value [5] was “potently induced CDC” and the “thalamus volume, mean percentage change between Month 24 and baseline” value [6] was −1.00%. For the same compound, the “thalamus volume change, mean difference ofatumumab vs teriflunomide” value ([6]; Month 24, p=0.002) was 0.40, the “suppression of gadolinium (Gd) T1 lesions compared to Aubagio” value ([7]; ASCLEPIOS I/II) was “highly significant suppression” and the “annualized relapse rate (ARR)” value ([7]; ASCLEPIOS I) was 0.11. For the same compound, the “reduction in annualized relapse rate (ARR) compared to Aubagio (teriflunomide)” value ([7]; ASCLEPIOS I) was 50.5%, the “annualized relapse rate (ARR)” value ([7]; ASCLEPIOS II) was 0.10 and the “reduction in annualized relapse rate (ARR) compared to Aubagio (teriflunomide)” value ([7]; ASCLEPIOS II) was 58.5%. The “relative risk reduction in 3-month confirmed disability progression (CDP) versus Aubagio” value ([7]; pre-specified pooled analyses, p=0.002) was 34.4%, the “relative risk reduction in 6-month confirmed disability progression (CDP) versus Aubagio” value ([7]; pre-specified pooled analyses, p=0.012) was 32.5% and the “mean change in MSIS-29 physical impact score from baseline” value (shortened to “mean change”) ([8]; Month 6) was −2.75. For the same compound, the “MSIS-29 physical impact score, mean difference ofatumumab vs teriflunomide” value ([8]; Month 6, p=0.017) was −2.30, the “mean change” value ([8]; Month 12) was −2.43 and the “MSIS-29 physical impact score, mean difference ofatumumab vs teriflunomide” value ([8]; Month 12, p=0.009) was −2.59. The “mean change” value ([8]; Month 18) was −2.37, the “MSIS-29 physical impact score, mean difference ofatumumab vs teriflunomide” value ([8]; Month 18, p=0.005) was −3.05 and the “mean change” value ([8]; Month 24) was −2.6. For the same compound, the “MSIS-29 physical impact score, mean difference ofatumumab vs teriflunomide” value ([8]; Month 24, p=0.008) was −3.19, the “mean change” value ([8]; Month 30) was −3.21 and the “MSIS-29 physical impact score, mean difference ofatumumab vs teriflunomide” value ([8]; Month 30, p=0.026) was −3.76. The “MSIS-29 psychological impact score vs teriflunomide treatment group” value ([8]; difference statistically significant only at Month 12) was “stronger reduction”.
In the case of “ocrelizumab: anti-CD20 mAb administered by intravenous infusion”, the “clinical and MRI course after anti-CD20 infusion” value [9] is listed as “clinical worsening and new Gd-enhancing MRI lesions” and the “EDSS course after administration” value ([9]; two patients, more than 3 months after fingolimod withdrawal, FIG. 1) is listed as “significant Expanded Disability Status Scale (EDSS) progression”.
In the case of “rituximab: anti-CD20 mAb administered by intravenous infusion”, the “clinical and MRI course after anti-CD20 infusion” value [9] is listed as “clinical worsening; also recorded: persistent Gd-enhancing lesions”.
For `C/C(O)=C(\C#N)C(=O)Nc1ccc(C(F)(F)F)cc1` [teriflunomide, reference compound], the “thalamus volume, mean percentage change between Month 24 and baseline” value [6] was −1.4%, the “mean change” value ([8]; Month 6) was −0.44 and the “mean change” value ([8]; Month 12) was 0.17. For the same compound, the “mean change” value ([8]; Month 18) was 0.67, the “mean change” value ([8]; Month 24) was 0.59 and the “mean change” value ([8]; Month 30) was 0.55.
